Results on 24 compounds are retold here after PMC9264368, “Structural Analysis and Development of Notum Fragment Screening Hits” (ACS Chemical Neuroscience, 2022).

On the set-up of data set [1]: method as in PMID 33124429. As to conditions: mouse; cited from earlier work.
Data set [2] has as its system Wnt/β-catenin signaling in the presence of Notum. As to conditions: read-out: EC50, restoration of Wnt/β-catenin signaling, TCF/LEF reporter.
Data set [3] shares this test system. Further details: method as in PMID 35536179. As to conditions: read-out: EC50, cell-based reporter (TCF/LEF) assay; cited from earlier work.
On the set-up of data set [4]: method as in PMID 35536179. The settings on record: cited from earlier work.
Details of data set [5]: method as in PMID 35536179. The settings on record: mouse liver microsomes; cited from earlier work.
On the set-up of data set [6]: method as in PMID 35536179. The settings on record: human liver microsomes; cited from earlier work. Background: Liver microsomes are a subcellular fraction often used to study metabolism.
Another data set relates to MDCK-MDR1. Also on record: method as in PMID 35536179. As to conditions: cited from earlier work.
Data set [7] addresses T1, Notum (Homo sapiens, UniProt Q6P988, C330S).
T1 sequence (Q6P988 81-451 C330S): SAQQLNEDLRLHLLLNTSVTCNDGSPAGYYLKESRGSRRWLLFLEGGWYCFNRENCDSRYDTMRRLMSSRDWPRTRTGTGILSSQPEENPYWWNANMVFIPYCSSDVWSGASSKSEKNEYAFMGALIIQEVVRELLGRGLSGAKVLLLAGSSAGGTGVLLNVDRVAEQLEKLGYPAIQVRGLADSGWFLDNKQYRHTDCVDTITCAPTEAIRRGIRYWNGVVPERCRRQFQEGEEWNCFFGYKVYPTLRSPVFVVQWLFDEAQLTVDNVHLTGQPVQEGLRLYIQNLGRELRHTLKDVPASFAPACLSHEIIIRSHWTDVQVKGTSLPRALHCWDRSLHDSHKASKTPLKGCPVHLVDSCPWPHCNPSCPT
As to the kind of experiment: biochemical.

Data set [8] deals with T1, Notum. The settings on record: for LE (ligand efficiency): LE = 1.4(−pIC50)/HAC; for LLE (lipophilic ligand efficiency): LLE = pIC50 – clogP; for LE / LLE: supplementary CSV.
The mark [9] stands for this setting: Notum IC50, OPTS substrate, 10-point curves 30 nM to 1 mM, mean ± s.d. of N = 2–4 unless stated, Table 1 and figures.
The mark [10] stands for this setting: pIC50, Table 1, Notum OPTS assay.

≈ marks a conversion by molar mass, not a printed value. Like-named read-outs stand apart in the source and are kept apart here.

On to `Oc1nnc(-c2ccc(Cl)c(C(F)(F)F)c2)o1` [7a], for which, in [1], the brain penetration entry is on record as “only partial” and the plasma exposure entry was “good”.

For the compound `OCc1cn(-c2ccc(Cl)c(C(F)(F)F)c2)nn1` [7b, (1-(4-Chloro-3-(trifluoromethyl)phenyl)-1H-1,2,3-triazol-4-yl)methanol], in data set [2], the EC50 worked out at 1.6 ± 1.2 µM.

On to `FC(F)(F)c1c(Cl)ccc(-n2ccnn2)c1Cl` [7d], for which, in [3], the EC50 is 0.11 ± 0.1 µM.

One may read the aqueous solubility as the dissolved amount per volume that the medium holds. The term IC50 denotes the concentration at which inhibition is half-maximal. A low value points to inhibition by little substance. For `OCc1cn(-c2ccc(Cl)c(Cl)c2)nn1` [compound 7], the aqueous solubility in data set [4] is recorded as 100 mg/mL (≈ 410 mM). Besides, in data set [5], the MLM Cli is 88 µL/min/mg protein. Further, the HLM Cli in data set [6] was 12 µL/min/mg protein. Further, the “Papp AB” value with MDCK-MDR1 (MDCK-MDR1, AB) was 57 × 10^–6 cm/s. Besides, the “Papp BA” value in the data set with MDCK-MDR1 (MDCK-MDR1, BA) is 59 × 10^–6 cm/s. The IC50 against Notum [7] (setting [9]) was below 10 µM.

Take `c1ccc(CNCc2ccc3c(c2)OCO3)nc1` [compound 28, 1-(Benzo[d][1,3]dioxol-5-yl)-N-(pyridine-2-ylmethyl)methanamine]: on Notum [8], the “LE (ligand efficiency)” value stood at 0.33, the “LLE (lipophilic ligand efficiency)” value is recorded as 3.2, the LE is recorded as 0.33 and the LLE is listed as 3.2. Further, the IC50 at Notum [7] (setting [9]) amounted to 54 ± 6.2 µM.

With `CCc1ccc(OCC(=O)N2CCCCC2)cc1` [compound 31], on Notum [8], the “LE (ligand efficiency)” value amounted to 0.30, the “LLE (lipophilic ligand efficiency)” value worked out at 0.7, the LE stood at 0.3 and the LLE was 0.7. On Notum [7] (setting [9]), this compound came in with an IC50 of 120 ± 30 µM.

For the compound `c1cc2c(cc1CNC[C@H]1CCCO1)OCO2` [compound 32], at Notum [8], the “LE (ligand efficiency)” value is recorded as 0.25, the “LLE (lipophilic ligand efficiency)” value is 0.9, the LE was found to be 0.25 and the LLE was 0.9. Besides, 1000 µM corresponded to half-maximal inhibition at Notum [7] (IC50 (µM), supplementary CSV, Notum IC50 values for 1–58) (IC50). At Notum [7] (setting [9]), this compound came in with an IC50 of around 1000 µM.

In the case of `Nc1ccccc1Nc1ccccn1` [compound 33], at Notum [8], the “LE (ligand efficiency)” value was 0.33, the “LLE (lipophilic ligand efficiency)” value is reported as 1.6, the LE turned out to be 0.33 and the LLE is 1.6. On Notum [7] (setting [9]), this compound returned an IC50 of 500 ± 64 µM.

For `NNC(=O)c1ccccc1OCc1ccccc1` [compound 34], at Notum [8], the “LE (ligand efficiency)” value was 0.27, the “LLE (lipophilic ligand efficiency)” value is 1.4, the LE is 0.27 and the LLE was 1.4. This compound also had an IC50 against Notum [7] (setting [9]) of 330 ± 11 µM.

Take `COCC(=O)Nc1nc(-c2ccccc2)cs1` [compound 35]: at Notum [8], the “LE (ligand efficiency)” value was 0.32, the “LLE (lipophilic ligand efficiency)” value came to 1.6, the LE was 0.32 and the LLE amounted to 1.6. Further, the IC50 against Notum [7] (setting [9]) worked out at 120 ± 24 µM.

For `Cl.Oc1c(CN2CCOCC2)ccc2ccccc12` [compound 37], on Notum [8], the “LE (ligand efficiency)” value was found to be 0.33, the “LLE (lipophilic ligand efficiency)” value came out at 1.9, the LE stood at 0.33 and the LLE amounted to 1.9. The same compound registered an IC50 on Notum [7] (setting [9]) of 58 ± 19 µM.

Consider `CC1CCN(Cc2c[nH]c3ccccc23)CC1` [compound 38], for which, on Notum [8], the “LE (ligand efficiency)” value was 0.32, the “LLE (lipophilic ligand efficiency)” value stood at 0.2, the LE turned out to be 0.32 and the LLE is reported as 0.2. The same compound yielded an IC50 on Notum [7] (setting [9]) of 120 ± 49 µM.

On to `COCC(=O)NCc1ccccc1` [compound 41], for which, at Notum [8], the “LE (ligand efficiency)” value amounted to 0.45, the “LLE (lipophilic ligand efficiency)” value amounted to 3.2, the LE was determined as 0.45 and the LLE came out at 3.2. At Notum [7] (setting [9]), the IC50 was determined as 68 ± 5.4 µM.

With `COc1ccc(CNC(=O)[C@@H]2CCCO2)cc1` [compound 43], on Notum [8], the “LE (ligand efficiency)” value stood at 0.34, the “LLE (lipophilic ligand efficiency)” value worked out at 2.7, the LE is given as 0.34 and the LLE came out at 2.7. The compound further registered a half-maximal inhibitory concentration (IC50) against Notum [7] (setting [9]) of 87 ± 47 µM.

In the case of `COC(=O)COc1ccc(C#N)cc1` [compound 44], at Notum [8], the “LE (ligand efficiency)” value is 0.34, the “LLE (lipophilic ligand efficiency)” value amounted to 2.0, the LE is 0.34 and the LLE is given as 2. The same compound came in with a half-inhibitory concentration (IC50) against Notum [7] (setting [9]) of 410 ± 63 µM.

As to `O=C(NCCc1ccc(O)cc1)c1ccccn1` [compound 45], at Notum [8], the “LE (ligand efficiency)” value is recorded as 0.24, the “LLE (lipophilic ligand efficiency)” value stood at 1.2, the LE worked out at 0.24 and the LLE was 1.2. On Notum [7] (setting [9]), this compound came in with an IC50 of 720 ± 18 µM.

Take `COc1cc(-c2ccccc2)nc(N)n1` [compound 46]: at Notum [8], the “LE (ligand efficiency)” value is given as 0.32, the “LLE (lipophilic ligand efficiency)” value amounted to 0.7, the LE came to 0.32 and the LLE is given as 0.7. At Notum [7] (setting [9]), this compound had an IC50 of 380 ± 130 µM.

Take `Cn1nc(O)cc1Nc1ccccc1` [compound 49]: on Notum [8], the “LE (ligand efficiency)” value is 0.33, the “LLE (lipophilic ligand efficiency)” value is reported as 1.8, the LE is listed as 0.33 and the LLE came out at 1.8. The compound also showed an IC50 against Notum [7] (setting [9]) of 550 ± 93 µM. The compound also had an IC50 against Notum [7] (setting [10]) of 631 µM.

In the case of `Cc1ccc(C)c(OC(=O)c2ccncc2)c1` [compound 50], at Notum [8], the “LE (ligand efficiency)” value is reported as 0.37, the “LLE (lipophilic ligand efficiency)” value was found to be 1.1, the LE is given as 0.37 and the LLE is recorded as 1.1. The compound also yielded a half-maximal inhibitory concentration (IC50) at Notum [7] (setting [9]) of 36 ± 2.7 µM.

As for `CCc1noc(C)c1C(=O)Nc1cc(C)on1` [compound 53], on Notum [8], the “LE (ligand efficiency)” value stood at 0.25, the “LLE (lipophilic ligand efficiency)” value was found to be 2.7, the LE is given as 0.25 and the LLE is 2.7. It took 980 ± 17 µM to reach half-maximal inhibition on Notum [7] (setting [9]) (IC50).

For `Cc1ccccc1CNc1nnnn1C` [compound 54], at Notum [8], the “LE (ligand efficiency)” value was 0.38, the “LLE (lipophilic ligand efficiency)” value was 2.0, the LE is given as 0.38 and the LLE was 2. In addition, the IC50 on Notum [7] (setting [9]) came to 78 ± 8.2 µM.

`C[C@@H](Oc1ccc(-c2ccccc2)cc1)C(=O)O` [compound 55]: at Notum [8], the “LE (ligand efficiency)” value is 0.29, the “LLE (lipophilic ligand efficiency)” value turned out to be 0.2, the LE amounted to 0.29 and the LLE was 0.2. At Notum [7] (setting [9]), this compound had an IC50 of 200 ± 76 µM.

As for `CCn1c(NC(C)=O)nc2ccccc21` [compound 57], on Notum [8], the “LE (ligand efficiency)” value turned out to be 0.33, the “LLE (lipophilic ligand efficiency)” value is reported as 1.5, the LE was determined as 0.33 and the LLE is given as 1.5. The same compound gave a half-inhibitory concentration (IC50) against Notum [7] (setting [9]) of 260 ± 51 µM. On Notum [7] (setting [10]), this compound showed an IC50 of 316 µM.

For the compound `CC(=O)Nc1ccc2nsnc2c1` [compound 58], on Notum [8], the “LE (ligand efficiency)” value turned out to be 0.38, the “LLE (lipophilic ligand efficiency)” value is listed as 1.4, the LE is 0.38 and the LLE turned out to be 1.4. At Notum [7] (setting [9]), this compound came in with an IC50 of 390 ± 53 µM.
